From patent US9212164B2, “Pesticidal compositions and processes related thereto” (Dow AgroSciences LLC, priority 2012, dated 2015)

Assays:
[1] = test system: Beet Armyworm (BAW) (Spodoptera exigua); experiment: Bioassays on BAW, 128-well diet tray assay; assay type: in vivo; conditions: Spodoptera exigua, 168 h; 50 μg/cm^2 on artificial diet, second instar larvae, five to seven days, 25° C.; read-out: BAW Rating (percent mortality)
Experimental: (§1) Certain molecules disclosed in this document were tested against BAW, CEW and CL using procedures described in the following examples. In the reporting of the results, the “BAW & CEW & CL Rating Table” was used (See Table Section).
Bioassays on BAW (Spodoptera exigua)
Bioassays on BAW were conducted using a 128-well diet tray assay. One to five second instar BAW larvae were placed in each well (3 mL) of the diet tray that had been previously filled with 1 mL of artificial diet to which 50 μg/cm^2 of the test compound (dissolved in 50 μL of 90:10 acetone-water mixture) had been applied (to each of eight wells) and then allowed to dry. Trays were covered with a clear self-adhesive cover, and held at 25° C., 14:10 light-dark for five to seven days. Percent mortality was recorded for the larvae in each well; activity in the eight wells was then averaged. The results are indicated in the tables entitled “Table 3: Assay Results Part 1” and “Table 4: Assay Results Part 2” (See Table Section).

[2] = test system: Cabbage Looper (CL) (Trichoplusia ni); experiment: Bioassays on CL, 128-well diet tray assay; assay type: in vivo; conditions: 168 h, 50 μg/cm^2 on artificial diet, second instar larvae, five to seven days, 25° C., read-out: CL Rating (percent mortality)
Experimental: as §1
Bioassays on CL (Trichoplusia ni)
Bioassays on CL were conducted using a 128-well diet tray assay. One to five second instar CL larvae were placed in each well (3 mL) of the diet tray that had been previously filled with 1 mL of artificial diet to which 50 μg/cm^2 of the test compound (dissolved in 50 μL of 90:10 acetone-water mixture) had been applied (to each of eight wells) and then allowed to dry. Trays were covered with a clear self-adhesive cover, and held at 25° C., 14:10 light-dark for five to seven days. Percent mortality was recorded for the larvae in each well; activity in the eight wells was then averaged. The results are indicated in the table entitled “Table 4: Assay Results Part 2” (See Table Section).

SMILES | mortality at 50 µg/cm2 [1] [%] | mortality at 50 µg/cm2 [2] [%]
Cc1cc(C(/C=C/c2ccc(C(=O)NC3(C(=O)NCC(F)(F)F)CC3)c(Br)c2)C(F)(F)F)ccc1Cl (stereo not drawn) [Compound P243] | 50 to 100 | 50 to 100
O=C(NC1(C(=O)NCc2ccc(Cl)cc2)CC1)c1ccc(/C=C/C(c2cc(Cl)c(Cl)c(Cl)c2)C(F)(F)F)cc1Br (stereo not drawn) [FA16] | 50 to 100 | 50 to 100
O=C(NC1(C(=O)NCC(F)(F)F)CC1)c1ccc(/C=C/C(c2cccc(OC(F)(F)F)c2)C(F)(F)F)cc1C(F)(F)F (stereo not drawn) [Compound P155] | 50 to 100 | 50 to 100
O=C(NC1(C(=O)NCC(F)(F)F)CC1)c1ccc(/C=C/C(c2cc(Cl)c(Cl)c(Cl)c2)C(F)(F)F)cc1C(F)(F)F (stereo not drawn) [Compound F8] | 50 to 100 | 50 to 100
COc1cccc(CNC(=O)C2(NC(=O)c3ccc(/C=C/C(c4cc(Cl)c(Cl)c(Cl)c4)C(F)(F)F)cc3Br)CC2)c1 (stereo not drawn) [FA35] | 50 to 100 | 50 to 100
CCc1cc(Cl)cc(C(/C=C/c2ccc(C(=O)NC3(C(=O)NCC(F)(F)F)CC3)c(Br)c2)C(F)(F)F)c1 (stereo not drawn) [FA13] | 50 to 100 | 50 to 100
COCCNC(=O)C1(NC(=O)c2ccc(/C=C/C(c3cc(Cl)c(Cl)c(Cl)c3)C(F)(F)F)cc2Br)CC1 (stereo not drawn) [FA28] | 50 to 100 | 50 to 100
O=C(NC1(C(=O)NCC2CCOC2)CC1)c1ccc(/C=C/C(c2cc(Cl)c(Cl)c(Cl)c2)C(F)(F)F)cc1Br (stereo not drawn) [FA21] | 50 to 100 | 50 to 100
O=C(NC1(C(=O)NCCn2cccn2)CC1)c1ccc(/C=C/C(c2cc(Cl)c(Cl)c(Cl)c2)C(F)(F)F)cc1Br (stereo not drawn) [FA23] | 50 to 100 | 50 to 100
O=C(NC1(C(=O)NCC(F)(F)F)CC1)c1ccc(/C=C/C(c2cc(Cl)cc(Br)c2)C(F)(F)F)cc1C(F)(F)F (stereo not drawn) [Compound P380] | 50 to 100 | 50 to 100
CON(CC(F)(F)F)C(=O)C1(NC(=O)c2ccc(/C=C/C(c3cc(Cl)c(Cl)c(Cl)c3)C(F)(F)F)cc2C(F)(F)F)CC1 (stereo not drawn) [FA49, (E)-N-(1-(Methoxy(2,2,2-trifluoroethyl)carbamoyl)cyclopropyl)-4-(4,4,4-trifluoro-3-(3,4,5-trichlorophenyl)but-1-en-1-yl)-2-(trifluoromethyl)benzamide] | 50 to 100 | 50 to 100
O=C(NC1(C(=O)NCC(F)(F)F)CC1)c1ccc(/C=C/C(c2ccc(Cl)c(Cl)c2)C(F)(F)F)cc1C(F)(F)F (stereo not drawn) [Compound P1095] | 50 to 100 | 50 to 100
O=C(NC1(C(=O)NCc2ccccc2Cl)CC1)c1ccc(/C=C/C(c2cc(Cl)c(Cl)c(Cl)c2)C(F)(F)F)cc1Br (stereo not drawn) [FA29] | 50 to 100 | 50 to 100
Cc1cc(C(/C=C/c2ccc(C(=O)NC3(C(=O)NCC(F)(F)F)CC3)c(Br)c2)C(F)(F)F)cc(C)c1F (stereo not drawn) [Compound P333] | 50 to 100 | 50 to 100
COc1ccc(N(C)C(=O)C2(NC(=O)c3ccc(/C=C/C(c4cc(Cl)c(Cl)c(Cl)c4)C(F)(F)F)cc3Br)CC2)cc1 (stereo not drawn) [FA41] | 50 to 100 | 50 to 100
O=C(NC1(C(=O)NCC(F)(F)F)CC1)c1ccc(/C=C/C(c2cc(Cl)c(Cl)c(Cl)c2)C(F)(F)C(F)(F)F)cc1Br (stereo not drawn) [Compound P1003] | 50 to 100 | 50 to 100
N#CC1(NC(=O)c2ccc(/C=C/C(c3cc(Cl)c(Cl)c(Cl)c3)C(F)(F)F)cc2Br)CC1 (stereo not drawn) [Compound F7, (E)-2-Bromo-N-(1-cyanocyclopropyl)-4-(4,4,4-trifluoro-3-(3,4,5-trichlorophenyl)but-1-en-1-yl)benzamide] | 50 to 100 | 50 to 100
COCCCNC(=O)C1(NC(=O)c2ccc(/C=C/C(c3cc(Cl)c(Cl)c(Cl)c3)C(F)(F)F)cc2Br)CC1 (stereo not drawn) [FA18] | 50 to 100 | 50 to 100
CN(Cc1ccc(Br)cc1)C(=O)C1(NC(=O)c2ccc(/C=C/C(c3cc(Cl)c(Cl)c(Cl)c3)C(F)(F)F)cc2Br)CC1 (stereo not drawn) [FA44] | 50 to 100 | 50 to 100
O=C(NC1(C(=O)NC2CCCC2)CC1)c1ccc(/C=C/C(c2cc(Cl)c(Cl)c(Cl)c2)C(F)(F)F)cc1Br (stereo not drawn) [FA17] | 50 to 100 | 50 to 100
O=C(NC1(C(=O)NCC(F)(F)F)CC1)c1ccc(/C=C/C(c2cc(Cl)c(Cl)cc2Cl)C(F)(F)F)cc1C(F)(F)F (stereo not drawn) [Compound P110] | 50 to 100 | 50 to 100

SMILES | mortality at 50 µg/cm2 [1] [%] | mortality at 50 µg/cm2 [2] [%]
COCCN(C)C(=O)C1(NC(=O)c2ccc(/C=C/C(c3cc(Cl)c(Cl)c(Cl)c3)C(F)(F)F)cc2Br)CC1 (stereo not drawn) [FA43] | 50 to 100 | 50 to 100
O=C(NC1(C(=O)NCC(F)(F)F)CC1)c1ccc(/C=C/C(c2cc(Br)c(Cl)c(Br)c2)C(F)(F)F)cc1C(F)(F)F (stereo not drawn) [FA7] | 50 to 100 | 50 to 100
O=C(NC1(C(=O)NCC(F)(F)F)CCC1)c1ccc(/C=C/C(c2cc(Cl)c(Cl)c(Cl)c2)C(F)(F)F)cc1Cl (stereo not drawn) [Compound F4] | 50 to 100 | 50 to 100
O=C(NC1(C(=O)NCC(F)(F)F)CC1)c1ccc(/C=C/C(c2cc(Cl)c(Br)c(Cl)c2)C(F)(F)F)cc1Br (stereo not drawn) [FA5] | 50 to 100 | 50 to 100
CCCN(C)C(=O)C1(NC(=O)c2ccc(/C=C/C(c3cc(Cl)c(Cl)c(Cl)c3)C(F)(F)F)cc2Br)CC1 (stereo not drawn) [FA42] | 50 to 100 | 50 to 100
O=C(NC1(C(=O)NCC(F)(F)F)CC1)c1ccc(/C=C/C(c2cc(F)cc(Br)c2)C(F)(F)F)cc1Br (stereo not drawn) [Compound P198] | 50 to 100 | 50 to 100
CCN(Cc1ccccc1)C(=O)C1(NC(=O)c2ccc(/C=C/C(c3cc(Cl)c(Cl)c(Cl)c3)C(F)(F)F)cc2Br)CC1 (stereo not drawn) [FA45] | 50 to 100 | 50 to 100
O=C(NC1(C(=O)NCC(F)(F)F)CC1)c1ccc(/C=C/C(c2cc(Cl)cc(Cl)c2)C(F)(F)F)cc1Br (stereo not drawn) [Compound P1048] | 50 to 100 | 50 to 100
O=C(NC1(C(=S)NCC(F)(F)F)CC1)c1ccc(/C=C/C(c2cc(Cl)c(Cl)c(Cl)c2)C(F)(F)F)cc1C(F)(F)F (stereo not drawn) [Compound F6, (E)-4-(4,4,4-Trifluoro-3-(3,4,5-trichlorophenyl)but-1-enyl)-N-(1-(2,2,2-trifluoroethylcarbamothioyl)cyclopropyl)-2-(trifluoromethyl)benzamide] | 50 to 100 | 50 to 100
O=C(NC1(C(=O)NCC(F)(F)F)CC1)c1ccc(/C=C/C(c2cc(Cl)cc(Cl)c2)C(F)(F)C(F)(F)F)cc1C(F)(F)F (stereo not drawn) [Compound P1045] | 50 to 100 | 50 to 100
O=C(NC1(C(=O)NCCn2ccnc2)CC1)c1ccc(/C=C/C(c2cc(Cl)c(Cl)c(Cl)c2)C(F)(F)F)cc1Br (stereo not drawn) [FA24] | 0 to 50 | 0
O=C(NC1(C(=O)Nc2ccc(C(F)(F)F)cc2)CC1)c1ccc(/C=C/C(c2cc(Cl)c(Cl)c(Cl)c2)C(F)(F)F)cc1Br (stereo not drawn) [FA36] | 0 | 0
O=C(NC1(C(=O)NCC(F)(F)F)CC1)c1ccc(/C=C/C(c2cc(F)cc(Br)c2)C(F)(F)F)cc1C(F)(F)F (stereo not drawn) [Compound P200] | 50 to 100 | 50 to 100
O=C(NC1(C(=O)NC2CCOC2)CC1)c1ccc(/C=C/C(c2cc(Cl)c(Cl)c(Cl)c2)C(F)(F)F)cc1Br (stereo not drawn) [FA25] | 50 to 100 | 50 to 100
O=C(NC1(C(=O)NCC(F)(F)F)CC1)c1ccc(/C=C/C(c2cc(Cl)cc(Cl)c2)C(F)(F)F)cc1C(F)(F)F (stereo not drawn) [Compound P1050] | 50 to 100 | 50 to 100
O=C(NC1(C(=S)NCC(F)(F)F)CC1)c1ccc(/C=C/C(c2cc(Cl)c(Cl)c(Cl)c2)C(F)(F)F)cc1Br (stereo not drawn) [Compound P1009] | 50 to 100 | 50 to 100
N#Cc1cc(C(/C=C/c2ccc(C(=O)NC3(C(=O)NCC(F)(F)F)CC3)c(C(F)(F)F)c2)C(F)(F)F)ccc1F (stereo not drawn) [Compound P515] | 50 to 100 | 50 to 100
O=C(NC1(C(=O)NCCC(F)(F)F)CC1)c1ccc(/C=C/C(c2cc(Cl)c(Cl)c(Cl)c2)C(F)(F)F)cc1Br (stereo not drawn) [Compound P1033] | 50 to 100 | 50 to 100
O=C(NC1(C(=O)NCC(F)(F)F)CC1)c1ccc(/C=C/C(c2ccc(Cl)c([N+](=O)[O-])c2)C(F)(F)F)cc1Br (stereo not drawn) [Compound P468] | 50 to 100 | 50 to 100
Cc1cc(/C=C/C(c2cc(Cl)c(Cl)c(Cl)c2)C(F)(F)F)ccc1C(=O)NC1(C(=S)NCC(F)(F)F)CC1 (stereo not drawn) [Compound P1011] | 50 to 100 | 50 to 100
Cc1cc(/C=C/C(c2cc(Cl)c(Cl)c(Cl)c2)C(F)(F)F)ccc1C(=O)NC1(C(=O)NCC(F)(F)F)CCC1 (stereo not drawn) [FA1] | 50 to 100 | 50 to 100
